Measured values as given in patent US20230416232A1, “PYRIMIDINE COMPOUNDS, COMPOSITIONS, AND MEDICINAL APPLICATIONS THEREOF” (Blueprint Medicines Corporation, priority 2020, published 2023).
Counter-ions that a name gives are not always drawn.

Legend:
Format in all cases: cell-based
[1] = target: EGFR (A767_dupASV) expressing Ba/F3 stable cell line (Homo sapiens, UniProt P00533, DUP767-769, cells depend on it); assay: Cellular proliferation (Alamar Blue) assay, EGFR (A767_dupASV) Ba/F3; conditions: 72 hr, read-out: A767 IC50
Summary of the method: (§1)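 Compound exposure lasted 72 h at 37 °C over a final 10–0.0005 μM range in 3-fold steps, with viability read by Alamar Blue after a further 3 h. Ba/F3 mutant lines were plated at 15,000 cells/well in RPMI/10% FBS, A431 at 5000/well in DMEM/10% FBS, 16–18 h beforehand.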

A431 cells = assay: Cellular proliferation (Alamar Blue) assay, A431 cells; conditions: Homo sapiens, A-431, 72 h, A431 cells; 72 hr; Alamar Blue; read-out: A431 IC50
Summary of the method: as §1

[2] = target: EGFR(D770_N771insSVD) expressing Ba/F3 stable cell line (Homo sapiens, UniProt P00533, DUP768-770, cells depend on it); assay: Cellular proliferation (Alamar Blue) assay, EGFR(D770_N771insSVD) Ba/F3; conditions: 72 hr, read-out: D770 IC50
Summary of the method: as §1

[3] = target: HER2 (A775_G776insYVMA) expressing Ba/F3 stable cell line (Homo sapiens, UniProt P04626, DUP772-775, cells depend on it); assay: Cellular proliferation (Alamar Blue) assay, HER2 (A775_G776insYVMA) Ba/F3; conditions: HER2 (A775_G776insYVMA) Ba/F3 cells; 72 hr; Alamar Blue; read-out: YVMA IC50
Summary of the method: as §1

[4] = target: EGFR (H773insNPH) expressing Ba/F3 stable cell line (Homo sapiens, UniProt P00533, DUP771-773, cells depend on it); assay: Cellular proliferation (Alamar Blue) assay, EGFR (H773insNPH) Ba/F3; conditions: 72 hr, read-out: NPH IC50
Method: Cell line details: • 1. EGFR(D770_N771insSVD) expressing Ba/F3 stable cell line • 2. EGFR (A767_dupASV) expressing Ba/F3 stable cell line • 3. A431 cells • 4. EGFR (H773insNPH) expressing Ba/F3 stable cell line • 5. HER2 (A775_G776insYVMA) expressing Ba/F3 stable cell line
• 1. Seed cells at 5000 for A431 and 15,000 cells for Ba/F3 in 100 μL/well in complete media (for A431: DMEM with 10% FBS and for Ba/F3 cells: RPMI with 10% FBS) in 96-well tissue culture plate. Leave outer wells without cells for background measurements. Incubate at 37 degree Celsius in 5% CO2 humidified incubator for 16-18 hours. • 2. Add 0.025 ml of 5X concentration compound dilution or DMSO control. Final compound concentration range is 10-0.0005 μM prepared in 3-fold serial dilutions. Incubate for 72 hr at 37 degree Celsius in 5% CO2 humidified incubator. • 3. Add 0.0125 ml Alamar Blue™ reagent to each well with multi-channel pipette and tap gently on each side of the plate to mix. Incubate for 3 hours at 37 degree Celsius in 5% CO2 humidified incubator. • 4. […] Data analysis was performed using XLfit 5.5.0.5.

Sequence of EGFR (A767_dupASV) expressing Ba/F3 stable cell line (P00533 with tags, fused parts or gaps DUP767-769): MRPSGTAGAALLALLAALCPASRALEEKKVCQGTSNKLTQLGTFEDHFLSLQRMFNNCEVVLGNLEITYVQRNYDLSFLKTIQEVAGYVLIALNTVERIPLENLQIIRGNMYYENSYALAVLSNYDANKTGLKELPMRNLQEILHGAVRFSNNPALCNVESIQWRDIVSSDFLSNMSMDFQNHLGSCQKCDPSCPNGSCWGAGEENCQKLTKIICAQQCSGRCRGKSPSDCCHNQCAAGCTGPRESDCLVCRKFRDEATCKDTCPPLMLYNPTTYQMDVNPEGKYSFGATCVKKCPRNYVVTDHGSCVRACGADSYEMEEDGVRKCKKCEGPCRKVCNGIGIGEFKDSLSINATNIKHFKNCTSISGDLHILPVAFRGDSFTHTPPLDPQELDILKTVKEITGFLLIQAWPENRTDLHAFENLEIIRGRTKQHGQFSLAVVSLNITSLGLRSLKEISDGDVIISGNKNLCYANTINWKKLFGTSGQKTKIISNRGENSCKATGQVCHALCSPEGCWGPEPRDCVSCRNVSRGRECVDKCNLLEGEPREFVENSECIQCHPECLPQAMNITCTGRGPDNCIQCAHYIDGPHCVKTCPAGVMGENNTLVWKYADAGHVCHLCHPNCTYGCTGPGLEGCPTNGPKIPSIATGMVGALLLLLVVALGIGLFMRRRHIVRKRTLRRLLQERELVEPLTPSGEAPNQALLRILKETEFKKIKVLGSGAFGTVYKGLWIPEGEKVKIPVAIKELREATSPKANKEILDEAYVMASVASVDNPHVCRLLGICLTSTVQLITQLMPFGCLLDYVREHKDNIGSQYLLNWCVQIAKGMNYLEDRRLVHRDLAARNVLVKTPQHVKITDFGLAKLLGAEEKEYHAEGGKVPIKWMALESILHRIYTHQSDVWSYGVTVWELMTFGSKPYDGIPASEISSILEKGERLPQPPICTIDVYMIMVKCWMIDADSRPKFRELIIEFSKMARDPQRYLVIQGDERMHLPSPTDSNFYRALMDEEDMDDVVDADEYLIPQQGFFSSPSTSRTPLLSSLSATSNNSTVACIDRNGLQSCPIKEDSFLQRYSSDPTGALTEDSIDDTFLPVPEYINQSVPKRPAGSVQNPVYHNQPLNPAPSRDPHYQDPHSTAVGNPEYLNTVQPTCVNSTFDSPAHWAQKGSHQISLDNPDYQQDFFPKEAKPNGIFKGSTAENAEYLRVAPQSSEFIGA
Sequence of EGFR(D770_N771insSVD) expressing Ba/F3 stable cell line (P00533 with tags, fused parts or gaps DUP768-770): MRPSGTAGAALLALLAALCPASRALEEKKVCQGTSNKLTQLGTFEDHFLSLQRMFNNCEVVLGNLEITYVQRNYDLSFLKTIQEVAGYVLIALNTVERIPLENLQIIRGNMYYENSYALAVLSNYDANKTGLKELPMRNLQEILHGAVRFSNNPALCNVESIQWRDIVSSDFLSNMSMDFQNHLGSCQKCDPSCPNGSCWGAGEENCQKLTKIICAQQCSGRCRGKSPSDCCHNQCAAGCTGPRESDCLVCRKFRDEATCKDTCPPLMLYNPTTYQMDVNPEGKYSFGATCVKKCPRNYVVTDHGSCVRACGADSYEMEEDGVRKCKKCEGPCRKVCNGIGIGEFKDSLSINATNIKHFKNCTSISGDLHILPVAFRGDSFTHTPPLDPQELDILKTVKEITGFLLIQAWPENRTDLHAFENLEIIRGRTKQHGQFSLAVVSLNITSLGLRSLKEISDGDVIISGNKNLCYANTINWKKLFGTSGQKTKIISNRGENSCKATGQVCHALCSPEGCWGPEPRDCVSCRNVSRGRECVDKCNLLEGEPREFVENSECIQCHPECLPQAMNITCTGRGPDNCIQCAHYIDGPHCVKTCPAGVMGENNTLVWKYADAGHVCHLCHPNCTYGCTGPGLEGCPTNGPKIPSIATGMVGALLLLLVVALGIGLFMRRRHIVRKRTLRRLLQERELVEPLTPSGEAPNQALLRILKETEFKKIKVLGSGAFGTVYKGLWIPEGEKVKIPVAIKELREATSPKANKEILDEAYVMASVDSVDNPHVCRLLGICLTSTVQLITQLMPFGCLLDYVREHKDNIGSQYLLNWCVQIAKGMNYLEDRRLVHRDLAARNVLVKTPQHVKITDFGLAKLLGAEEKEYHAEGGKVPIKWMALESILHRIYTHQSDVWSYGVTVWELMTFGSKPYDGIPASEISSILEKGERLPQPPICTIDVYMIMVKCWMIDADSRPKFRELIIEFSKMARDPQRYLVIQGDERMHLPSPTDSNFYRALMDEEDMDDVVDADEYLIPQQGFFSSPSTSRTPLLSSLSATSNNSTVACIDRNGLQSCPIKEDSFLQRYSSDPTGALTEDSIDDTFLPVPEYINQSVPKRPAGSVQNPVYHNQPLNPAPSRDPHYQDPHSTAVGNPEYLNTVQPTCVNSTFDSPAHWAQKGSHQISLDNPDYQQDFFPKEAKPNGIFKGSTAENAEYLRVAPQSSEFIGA
Sequence of EGFR (H773insNPH) expressing Ba/F3 stable cell line (P00533 with tags, fused parts or gaps DUP771-773): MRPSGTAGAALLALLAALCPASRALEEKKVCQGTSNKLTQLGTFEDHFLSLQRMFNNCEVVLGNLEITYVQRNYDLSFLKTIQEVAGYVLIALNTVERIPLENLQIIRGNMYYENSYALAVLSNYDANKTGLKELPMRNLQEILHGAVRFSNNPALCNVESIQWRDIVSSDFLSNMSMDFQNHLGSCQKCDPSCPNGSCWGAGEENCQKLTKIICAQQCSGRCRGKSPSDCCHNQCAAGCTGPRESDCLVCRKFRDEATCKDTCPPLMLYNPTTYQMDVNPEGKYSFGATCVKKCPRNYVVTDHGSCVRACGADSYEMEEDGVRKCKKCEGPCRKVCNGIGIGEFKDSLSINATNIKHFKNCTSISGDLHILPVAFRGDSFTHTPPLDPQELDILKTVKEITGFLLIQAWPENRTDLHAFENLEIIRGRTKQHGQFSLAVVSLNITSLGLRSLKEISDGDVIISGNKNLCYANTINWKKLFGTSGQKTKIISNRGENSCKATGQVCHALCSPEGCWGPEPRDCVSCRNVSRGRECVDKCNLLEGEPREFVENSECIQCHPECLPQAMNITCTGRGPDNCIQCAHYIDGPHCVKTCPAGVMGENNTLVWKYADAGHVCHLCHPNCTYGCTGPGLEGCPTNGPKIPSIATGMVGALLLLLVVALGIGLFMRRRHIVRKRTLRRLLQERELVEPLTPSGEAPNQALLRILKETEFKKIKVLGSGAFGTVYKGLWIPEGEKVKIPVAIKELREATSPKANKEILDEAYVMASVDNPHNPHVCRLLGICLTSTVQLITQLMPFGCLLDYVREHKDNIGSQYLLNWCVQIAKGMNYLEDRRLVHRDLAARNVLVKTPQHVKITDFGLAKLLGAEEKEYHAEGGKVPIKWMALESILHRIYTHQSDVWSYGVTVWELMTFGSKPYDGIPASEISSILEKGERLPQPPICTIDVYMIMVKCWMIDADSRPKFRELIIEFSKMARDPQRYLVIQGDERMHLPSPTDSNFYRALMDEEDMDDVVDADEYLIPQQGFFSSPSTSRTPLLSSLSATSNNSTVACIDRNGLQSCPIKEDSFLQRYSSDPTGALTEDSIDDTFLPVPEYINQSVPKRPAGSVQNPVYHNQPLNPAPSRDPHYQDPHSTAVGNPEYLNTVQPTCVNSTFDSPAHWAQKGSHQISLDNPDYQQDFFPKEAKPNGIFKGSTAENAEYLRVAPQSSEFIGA
Sequence of HER2 (A775_G776insYVMA) expressing Ba/F3 stable cell line (P04626 with tags, fused parts or gaps DUP772-775): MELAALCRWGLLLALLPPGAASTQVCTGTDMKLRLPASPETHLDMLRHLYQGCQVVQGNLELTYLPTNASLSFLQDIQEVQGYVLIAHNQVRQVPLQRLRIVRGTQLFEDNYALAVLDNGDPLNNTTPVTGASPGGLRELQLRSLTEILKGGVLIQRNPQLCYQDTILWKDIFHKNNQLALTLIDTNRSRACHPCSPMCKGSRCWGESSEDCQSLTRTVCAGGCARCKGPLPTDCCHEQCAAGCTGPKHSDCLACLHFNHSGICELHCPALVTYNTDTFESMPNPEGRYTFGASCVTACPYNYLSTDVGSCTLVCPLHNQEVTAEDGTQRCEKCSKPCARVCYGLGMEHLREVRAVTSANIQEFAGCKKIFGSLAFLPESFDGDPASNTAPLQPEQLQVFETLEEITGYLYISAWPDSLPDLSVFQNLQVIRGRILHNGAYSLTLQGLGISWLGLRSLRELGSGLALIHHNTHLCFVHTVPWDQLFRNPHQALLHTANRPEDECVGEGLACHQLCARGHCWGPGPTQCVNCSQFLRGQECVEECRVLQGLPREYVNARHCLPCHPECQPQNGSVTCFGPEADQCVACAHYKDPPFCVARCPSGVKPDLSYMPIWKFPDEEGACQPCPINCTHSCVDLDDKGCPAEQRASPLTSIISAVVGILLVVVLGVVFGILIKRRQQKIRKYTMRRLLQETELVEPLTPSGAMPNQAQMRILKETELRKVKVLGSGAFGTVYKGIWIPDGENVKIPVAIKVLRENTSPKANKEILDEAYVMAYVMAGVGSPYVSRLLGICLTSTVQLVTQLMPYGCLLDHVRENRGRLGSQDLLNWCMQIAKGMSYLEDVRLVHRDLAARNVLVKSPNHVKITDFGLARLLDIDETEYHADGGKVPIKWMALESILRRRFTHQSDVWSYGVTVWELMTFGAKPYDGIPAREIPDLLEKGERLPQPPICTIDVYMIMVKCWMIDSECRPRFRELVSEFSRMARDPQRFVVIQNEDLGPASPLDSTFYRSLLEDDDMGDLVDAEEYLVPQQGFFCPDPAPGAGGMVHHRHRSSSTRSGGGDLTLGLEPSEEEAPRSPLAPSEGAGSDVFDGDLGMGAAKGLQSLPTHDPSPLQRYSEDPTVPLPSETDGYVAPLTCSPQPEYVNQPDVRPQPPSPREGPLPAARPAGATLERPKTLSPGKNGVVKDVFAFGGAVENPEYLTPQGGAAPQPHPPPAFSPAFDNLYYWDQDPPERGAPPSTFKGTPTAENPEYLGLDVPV

| SMILES | GI50 [1] [nM] | IC50 (A431 cells) [nM] | GI50 [2] [nM] | GI50 [3] [nM] | GI50 [4] [nM] |
| --- | --- | --- | --- | --- | --- |
| C=CC(=O)Nc1ccc(F)c(Nc2nc(Nc3cnn(C)c3)ncc2-c2ccc(C)c(F)c2)c1 [Compound 13, N-(4-fluoro-3-((5-(3-fluoro-4-methylphenyl)-2-((1-methyl-1H-pyrazol-4-yl)amino)pyrimidin-4-yl)amino)phenyl)acrylamide] | 42 | 147 | 28 | 114 | 79 |
| C=CC(=O)Nc1ccc(F)c(Nc2nc(Nc3cnn(C)c3)ncc2-c2cc(F)cc(C(F)F)c2)c1 [Compound 15, N-(3-((5-(3-(difluoromethyl)-5-fluorophenyl)-2-((1-methyl-1H-pyrazol-4-yl)amino)pyrimidin-4-yl)amino)-4-fluorophenyl)acrylamide] | 45 | 84 | 36 | 124 | 102 |
| C=CC(=O)Nc1ccc(F)c(Nc2nc(Nc3cnn(C)c3)ncc2-c2ccc(OC(F)F)c(F)c2)c1 [Compound 16, N-(3-((5-(4-(difluoromethoxy)-3-fluorophenyl)-2-((1-methyl-1H-pyrazol-4-yl)amino)pyrimidin-4-yl)amino)-4-fluorophenyl)acrylamide] | 9 | 460 | 10 | 43 | 24 |
| C=CC(=O)Nc1ccc(F)c(Nc2nc(Nc3cnn(C)c3)ncc2-c2cnc(Cl)c(Cl)c2)c1 [Compound 17, N-(3-((5-(5,6-dichloropyridin-3-yl)-2-((1-methyl-1H-pyrazol-4-yl)amino)pyrimidin-4-yl)amino)-4-fluorophenyl)acrylamide] | 32 | 75 | 35 | 42 | 96 |
| C=CC(=O)Nc1ccc(F)c(Nc2nc(Nc3cnn(C)c3)ncc2-c2ccc(C(F)(F)F)cc2F)c1 [Compound 21, N-(4-fluoro-3-((5-(2-fluoro-4-(trifluoromethyl)phenyl)-2-((1-methyl-1H-pyrazol-4-yl)amino)pyrimidin-4-yl)amino)phenyl)acrylamide] | 181 | > 10000 | 107 | 1030 | 261 |
| C=CC(=O)Nc1ccc(F)c(Nc2nc(Nc3cnn(C)c3)ncc2-c2ccc(F)c(C(F)(F)F)c2)c1 [Compound 25, N-(4-fluoro-3-((5-(4-fluoro-3-(trifluoromethyl)phenyl)-2-((1-methyl-1H-pyrazol-4-yl)amino)pyrimidin-4-yl)amino)phenyl)acrylamide] | 87 | 49 | 102 | 341 | 91 |
| C=CC(=O)Nc1ccc(F)c(Nc2nc(Nc3cnn(C)c3)ncc2-c2cc(F)cc(F)c2)c1 [Compound 26, N-(3-((5-(3,5-difluorophenyl)-2-((1-methyl-1H-pyrazol-4-yl)amino)pyrimidin-4-yl)amino)-4-fluorophenyl)acrylamide] | 35 | 443 | 27 | 112 | 31 |
| C=CC(=O)Nc1ccc(F)c(Nc2nc(Nc3cnn(C)c3)ncc2-c2cc(F)cc(C(F)(F)F)c2)c1 [Compound 27, N-(4-fluoro-3-((5-(3-fluoro-5-(trifluoromethyl)phenyl)-2-((1-methyl-1H-pyrazol-4-yl)amino)pyrimidin-4-yl)amino)phenyl)acrylamide] | 31 | 73 | 35 | 150 | 55 |
| C=CC(=O)Nc1ccc(F)c(Nc2nc(Nc3cnn(C)c3)ncc2-c2cnc(OC)c(Cl)c2)c1 [Compound 31, N-(3-((5-(5-chloro-6-methoxypyridin-3-yl)-2-((1-methyl-1H-pyrazol-4-yl)amino)pyrimidin-4-yl)amino)-4-fluorophenyl)acrylamide trifluoroacetate] | 34 | 582 | 50 | 94 | 92 |
| C=CC(=O)Nc1ccc(F)c(Nc2nc(Nc3cnn(C)c3)ncc2-c2cc(Cl)cc(Cl)c2)c1 [Compound 32, N-(3-((5-(3,5-dichlorophenyl)-2-((1-methyl-1H-pyrazol-4-yl)amino)pyrimidin-4-yl)amino)-4-fluorophenyl)acrylamide] | 159 | > 10000 | 294 | 1160 | 160 |
| C=CC(=O)Nc1ccc(F)c(Nc2nc(Nc3cnn(C)c3)ncc2-c2ccc(C(F)(F)F)c(F)c2)c1 [Compound 35, N-(4-fluoro-3-((5-(3-fluoro-4-(trifluoromethyl)phenyl)-2-((1-methyl-1H-pyrazol-4-yl)amino)pyrimidin-4-yl)amino)phenyl)acrylamide] | 99 | 45 | 35 | 99 | 84 |
| C=CC(=O)Nc1ccc(F)c(Nc2nc(Nc3cnn(C)c3)ncc2-c2ccc(C(F)F)c(F)c2)c1 [Compound 37, N-(3-((5-(4-(difluoromethyl)-3-fluorophenyl)-2-((1-methyl-1H-pyrazol-4-yl)amino)pyrimidin-4-yl)amino)-4-fluorophenyl)acrylamide] | 34 | 51 | 30 | 93 | 51 |
| C=CC(=O)Nc1ccc(F)c(Nc2nc(Nc3cnn(C)c3)ncc2-c2cnc(Cl)c(F)c2)c1 [Compound 45, N-(3-((5-(6-chloro-5-fluoropyridin-3-yl)-2-((1-methyl-1H-pyrazol-4-yl)amino)pyrimidin-4-yl)amino)-4-fluorophenyl)acrylamide] | 10 | 35 | 7 | 16 | 25 |

Further molecules by falling GI50 [1], results first:

| GI50 [1] [nM] | IC50 (A431 cells) [nM] | GI50 [2] [nM] | GI50 [3] [nM] | GI50 [4] [nM] | SMILES |
| --- | --- | --- | --- | --- | --- |
| 262 | 1950 | 194 | 1070 | 124 | C=CC(=O)Nc1ccc(F)c(Nc2nc(Nc3cnn(C)c3)ncc2-c2cc(F)ccc2Cl)c1 [Compound 11, N-(3-((5-(2-chloro-5-fluorophenyl)-2-((1-methyl-1H-pyrazol-4-yl)amino)pyrimidin-4-yl)amino)-4-fluorophenyl)acrylamide] |
| 166 | 251 | 113 | 220 | 56 | C=CC(=O)Nc1ccc(F)c(Nc2nc(Nc3cnn(C)c3)ncc2-c2ccc(F)c(Br)c2)c1 [Compound 18, N-(3-((5-(3-bromo-4-fluorophenyl)-2-((1-methyl-1H-pyrazol-4-yl)amino)pyrimidin-4-yl)amino)-4-fluorophenyl)acrylamide trifluoroacetate] |
| 97 | 229 | 94 | 377 | 97 | C=CC(=O)Nc1ccc(F)c(Nc2nc(Nc3cnn(C)c3)ncc2-c2ccc(OC)cc2F)c1 [Compound 7, N-(4-fluoro-3-((5-(2-fluoro-4-methoxyphenyl)-2-((1-methyl-1H-pyrazol-4-yl)amino)pyrimidin-4-yl)amino)phenyl)acrylamide] |
| 41 | 707 | 35 | 84 | 24 | C=CC(=O)Nc1cccc(Nc2nc(Nc3cnn(C)c3)ncc2-c2cc(F)cc(C(F)F)c2)c1 [Compound 43, N-(3-((5-(3-(difluoromethyl)-5-fluorophenyl)-2-((1-methyl-1H-pyrazol-4-yl)amino)pyrimidin-4-yl)amino)phenyl)acrylamide] |
| 27 | 193 | 29 | 271 | 47 | C=CC(=O)Nc1ccc(F)c(Nc2nc(Nc3cnn(C)c3)ncc2-c2ccc(N(C)C)c(F)c2)c1 [Compound 28, N-(3-((5-(4-(dimethylamino)-3-fluorophenyl)-2-((1-methyl-1H-pyrazol-4-yl)amino)pyrimidin-4-yl)amino)-4-fluorophenyl)acrylamide] |
| 21 | 35 | 20 | 73 | 52 | C=CC(=O)Nc1ccc(F)c(Nc2nc(Nc3cnn(C)c3)ncc2-c2ccc(Cl)c(F)c2)c1 [Compound 33, N-(3-((5-(4-chloro-3-fluorophenyl)-2-((1-methyl-1H-pyrazol-4-yl)amino)pyrimidin-4-yl)amino)-4-fluorophenyl)acrylamide] |
